Earlier results, collected in US9439985B2, “Compositions for radiolabeling diethylenetriaminepentaacetic acid (DTPA)-dextran” (Navidea Biopharmaceuticals, Inc., priority 2009, dated 2016).

What was measured:
[1] = tested on: mannose-binding glycoprotein receptors in macrophages and dendritic cells present in the sentinel node; conditions: rabbit; Hoh et al.
[2] = tested on: mannose-terminated glycoprotein receptors; conditions: in vitro; Vera et al.

Row | binding to mannose-terminated glycoprotein receptors [2] | Substance | biodistribution after injection [1]
1 | – | 99mTc-DTPA-mannosyl-dextran | diffuses into lymph channels, flows to the sentinel node, and binds to mannose-binding glycoprotein receptors
2 | binds avidly | DTPA-mannosyl-dextran | –
